Patent US5458874A, “Method of increasing monocyte chemotaxis with CAP37 and monocyte chemotactic portions thereof” (Emory University, priority 1992, dated 1995)
“Also recorded” adds a separate entry of the source. Like-named read-outs stand apart in the source and are kept apart here.

Tests used:
[1] = test system: Salmonella typhimurium SH9178; assay: Bactericidal assay; assay type: cell-based; settings: for bactericidal effect on Salmonella typhimurium SH9178 (in words): FIGS. 12, 13, 15, 1 hour at 37° C.; for % survival with peptide 20-44: Salmonella SH9178
Method: (§1) An overnight culture of Salmonella typhimurium (or other microorganism of interest, if desired) is set up by inoculating one colony in 5 ml of LB Broth (LB Broth consists of 10 g BACTO tryptone (DIFCO), 5 g BACFO yeast (DIFCO) and 5 g NaCl made up to 1 L with endotoxin free water; add 15 g of BACTO agar (DIFCO) to this broth to make LB agar (autoclave). The culture is incubated at 37° C. with rotation. 100 μl of this overnight culture is then transferred to 5 ml of fresh LB Broth and incubated at 37° C. with rotation for 2 hours. Four ml of this log phase culture is then transferred to a sterile cuvette and the optical density is read at […]. Dilutions of the microorganism are then made in tryptone saline (5 g BAOTO tryptone (DIFCO) and 5 g NaCl made up to 1 L with endotoxin free water, pH 5.5) to give a final concentration of 5×10^3 organisms/ml (an O.D. reading of 0.25 at 520 mm is equivalent to 1×10^8 organisms/ml). The microorganisms are placed at 4° C. until ready to be used.
(§2) The stock solutions of peptides are stored at -20° C. at concentrations of 1 mg/ml of endotoxin-free water. The peptide is diluted out in tryptone saline to the desired concentration. 100 μl of the peptide is added to each well of the microtitre plate (Corning) and then 100 μl of the bacterial suspension (well vortexed) is added. Each assay point is set up in triplicate. 100 μl of a control, consisting of bacteria and tryptone saline (T=0) in the absence of peptide is plated out on LB agar plates. The microliter plate is then incubated at 37° C. for 1 hour. At the end of the incubation time, 100 μl of each sample is plated out on LB agar plates. The T=60 control (consisting of bacteria and tryptone saline in the absence of peptide) is plated out last. The plates are incubated overnight, and the number of colony forming units (CFU) are determined.
(§3) The % killed is determined as follows: [formula]

wild type LPS = assay: Neutralization of LPS activity, limulus amebocyte lysate (LAL) assay, wild type LPS; assay type: biochemical
Method: (§4) Further, the neutralization of LPS activity, as assayed by the limulus amebocyte lysate (LAL) assay, by CAP37 was measured. CAP37 was diluted to the desired concentrations (from 6.2 ng/ml to 500 ng/ml) in geys buffered saline pH 7 (GIBCO). To this wild type LPS (RIBI IMMUNOCHEM) or Re LPS from Salmonella (David Morrison, Kansas Medical Center) was added so that the final concentrations were 0.1, 0.5, 1.0 and 2.0 ng/ml LPS. The tubes were incubated at 37° C. for between 30 to 60 minutes and then assayed in the chromogenic LAL assay, using polymyxin E as a control.
(§5) As discussed in Example 11, peptides can be screened for lipopolysaccharide neutralizing capacity using the LAL assay also. The CAP37 peptide was diluted to the desired concentrations (from 125 ng/ml to 4000 ng/ml) in geys buffered saline pH 7 (GIBCO). To this is added the wild type LPS (RIBI IMMUNOCHEM) or Re LPS from Salmonella (David Morrison, Kansas Medical Center) so that the final concentration is 0.1, 0.5, and 1.0 ng/ml LPS. The tubes were incubated at 37° C. for between 30 to 60 minutes and then assayed in the chromogenic LAL assay.

P. mirabilis Re45 = assay: Bactericidal assay; assay type: cell-based, Proteus mirabilis; settings: for % survival with peptide 20-44: P. mirabilis Re45
Method: as §1, §2, §3

Salmonella SH7426 = assay: Bactericidal assay; assay type: cell-based
Method: as §1, §2, §3

E. coli = assay: Bactericidal assay; assay type: cell-based, Escherichia coli
Method: as §1, §2, §3

Ps. aeruginosa = assay: Bactericidal assay; assay type: cell-based, Pseudomonas aeruginosa; settings: for % survival with peptide 20-44: Ps. aeruginosa; for bactericidal activity (in words): Pseudomonas
Method: as §1, §2, §3

Strep. pyogenes = assay: Bactericidal assay; assay type: cell-based, Streptococcus pyogenes
Method: as §1
(§6) The stock solutions of peptides are stored at -20° C. at concentrations of 1 mg/ml of endotoxin-free water. The peptide is diluted out in tryptone saline to the desired concentration. […] The plates are incubated overnight, and the number of colony forming units (CFU) are determined.
as §3

[2] = test system: gram negative and gram positive bacteria; assay: Bactericidal assay, assortment of bacteria (FIG. 14); assay type: cell-based
Method: as §1, §6, §3

L monocytogenes = assay: Bactericidal assay; assay type: cell-based, Listeria monocytogenes
Method: as §1, §6, §3

S. aureus 502A = assay: Bactericidal assay; assay type: cell-based, Staphylococcus aureus
Method: as §1, §6, §3

Re LPS from Salmonella = assay: Neutralization of LPS activity, limulus amebocyte lysate (LAL) assay, Re LPS; assay type: biochemical
Method: as §4, §5

Salmonella LT2 = assay: Bactericidal assay; assay type: cell-based, Salmonella typhimurium; settings: for % survival with peptide 20-44: Salmonella LT2; for bactericidal activity (in words): Salmonella typhimurium LT2
Method: as §1, §2, §3

Salmonella SH7518 = assay: Bactericidal assay; assay type: cell-based, Salmonella typhimurium; settings: for % survival with peptide 20-44: Salmonella SH7518
Method: as §1, §2, §3

[3] = test system: Salmonella typhimurium SH9178; assay: Inhibition of the bactericidal effect by LPS and Lipid A; assay type: cell-based; settings: peptide at 200 μg/ml, FIG. 16
Method: To identity, those peptides derived from CAP37 having bacterial LPS-binding activity, the peptide fragments having bactericidal activity were tested to ascertain whether LPS or Lipid A inhibited that activity.

E. faecalis = assay: Bactericidal assay; assay type: cell-based, Enterococcus faecalis
Method: as §1, §2, §3

human monocytes = assay: Monocyte chemotaxis, modified Boyden chamber technique; assay type: cell-based; settings: chemoattractant conc. 10^-8 M
Method: Chemotaxis was measured using the modified Boyden chamber technique (Snyderman et al.). The leading front method (Zigmond et al.) was used to assess migration of monocytes and lymphocytes through a 8 μm filter (Millipore Corporation, Bedford, Mass.). PMN chemotaxis was measured using a 3 μm filter (Millipore). The purified CAP37 protein (Example 1) used in chemotaxis assays were endotoxin-free as determined by the Limulus Amoebocyte Lysate Assay (Whittaker Bioproducts, Inc., Walkersville, Md.). The dilutions of CAP37 and N-formyl-methionyl-leucyl-phenylalanine (FMLP) were made in Geys buffer (Gibco) containing 2% endotoxin-free bovine serum albumin (BSA). Geys buffer containing 2% BSA served as the negative control, and a […] solution of FMLP as the positive control.
The chambers were incubated in a humidified atmosphere (6.2% CO2) for 2 hours when testing monocytes and lymphocytes, and for 30 minutes when testing PMNs. The filters were then removed and processed as previously described (Snyderman et al.). The cells were viewed using oil immersion and the distance the cells had migrated into the filter was determined over five different fields on the same slide (Zigmond et al.). Triplicate assays were performed for each experimental point.
The three peptides were tested for chemotactic activity towards monocytes using the modified Boyden Chamber technique described in Example 2. The monocyte chemotactic activity of each peptide fragment at concentrations ranging from 10^-7 to 10^-13 M was compared with Geys buffer (negative control), FMLP 10^-8 M (positive control) and purified CAP37 10^-9 M (positive control). […] The effect of peptide 1 on monocyte chemotaxis is illustrated in Table 2 while the effect of peptide 3 on monocyte chemotaxis is illustrated in Table 3.

1-44aa: synthesized peptide fragment, amino acids 1-44 of the mature CAP37 protein (IVGGRKARPRQFPFLASIQNQGRHFCGGALIHARFVMTAASCFQ; UniProt P20160 27-70, looked up, fragment)
bactericidal effect on Salmonella typhimurium SH9178 (in words) [1]: active but not to the same extent as peptide 20-44aa

peptide 20-44aa: synthesized peptide fragment, amino acids 20-44 of the mature CAP37 protein (NQGRHFCGGALIHARFVMTAASCFQ)
neutralization of wild type LPS activity (LAL assay) (wild type LPS): neutralizing its effect to a certain extent | % survival with peptide 20-44 (P. mirabilis Re45; 50 uM): 26.8% | % survival with peptide 20-44 (P. mirabilis Re45; 75 uM): 29% | bactericidal activity (in words) (P. mirabilis Re45; Pr. mirabilis Re45): more active | % survival with peptide 20-44 (Salmonella SH7426; 50 uM): 62.5% | % survival with peptide 20-44 (Salmonella SH7426; 75 uM): 31.9% | % survival with peptide 20-44 ([1]; 50 uM): 36.9% | % survival with peptide 20-44 ([1]; 75 uM): 3.5% | bactericidal activity compared with cathepsin G and elastase peptides ([1]; 100 and 125 μM, FIG. 15): very much more bactericidal | bactericidal effect on Salmonella typhimurium SH9178 (in words) [1]: most potent antibiotic of these peptides; also recorded: Strongest activity; also recorded: extremely active | bactericidal effect on Salmonella typhimurium SH9178 (in words) ([1]; listed as CAP37 peptide 20-44): most active | bactericidal activity (in words) (E. coli): more active | % survival with peptide 20-44 (E. coli; 50 uM): 24.6% | % survival with peptide 20-44 (E. coli; 75 uM): 0% | bactericidal activity (in words) (E. coli; listed as CAP37 peptide 20-44): most active | % survival with peptide 20-44 (Ps. aeruginosa; 50 uM): 0% | % survival with peptide 20-44 (Ps. aeruginosa; 75 uM): 0% | bactericidal activity (in words) (Ps. aeruginosa): more active | bactericidal activity (in words) (Ps. aeruginosa; listed as CAP37 peptide 20-44): most active | % survival with peptide 20-44 (Strep. pyogenes; 50 uM): 93.4% | % survival with peptide 20-44 (Strep. pyogenes; 75 uM): 78% | antibacterial activity against gram negative and gram positive bacteria (in words) [2]: active against a wide assortment of bacteria | antibacterial activity against gram negative and gram positive bacteria (in words) ([2]; listed as peptide 20-14aa): active against many other bacteria | % survival with peptide 20-44 (L monocytogenes; 50 uM): 65.8% | % survival with peptide 20-44 (L monocytogenes; 75 uM): 64.6% | % survival with peptide 20-44 (S. aureus 502A; 50 uM): 58.7% | % survival with peptide 20-44 (S. aureus 502A; 75 uM): 27.5% | neutralization of Re LPS activity (LAL assay) (Re LPS from Salmonella): more dramatic | % survival with peptide 20-44 (Salmonella LT2; 50 uM): 28.5% | % survival with peptide 20-44 (Salmonella LT2; 75 uM): 1.7% | bactericidal activity (in words) (Salmonella LT2): more active | bactericidal activity (in words) (Salmonella LT2; listed as CAP37 peptide 20-44): most active | % survival with peptide 20-44 (Salmonella SH7518; 50 uM): 0.6% | % survival with peptide 20-44 (Salmonella SH7518; 75 uM): 0% | bactericidal activity (in words) (Salmonella SH7518; Salmonella typhimurium SH7518): most active | inhibition of the bactericidal effect by wild type LPS and Lipid A [3]: wild type LPS, but more particularly Lipid A, can inhibit the bactericidal effect | bactericidal activity (in words) (E. faecalis): more active | % survival with peptide 20-44 (E. faecalis; 50 uM): 16.1% | % survival with peptide 20-44 (E. faecalis; 75 uM): 0% | bactericidal activity (in words) (E. faecalis; listed as CAP37 peptide 20-44): most active

26-42aa: synthesized peptide fragment, amino acids 26-42 of the mature CAP37 protein (CGGALIHARFVMTAASC; UniProt P20160 52-68, looked up, fragment)
bactericidal effect on Salmonella typhimurium SH9178 (in words) [1]: minimal activity

CSCC[C@H](NC=O)C(=O)N[C@@H](CC(C)C)C(=O)N[C@@H](Cc1ccccc1)C(=O)O [FMLP, N-formyl-methionyl-leucyl-phenylalanine, reference compound]
Distance migrated in μm (human monocytes; Table 2): 86.2 μm | Distance migrated in μm (human monocytes; Table 3): 91.4 μm
